Legend:
Mus musculus [1] = assay: Analgesic activity in formalin-induced nociception Albino Swiss CD-1 mouse model assessed as time spent on licking formalin injected hind paw during neurogenic phase at 5 mg/kg, ip pretreated for 30 mins followed by formalin induction measured up to 5 mins (reference value: 60.23 +/- 5.12 s); type: functional
Mus musculus [2] = assay: Analgesic activity in formalin-induced nociception Albino Swiss CD-1 mouse model assessed as time spent on licking formalin injected hind paw during neurogenic phase at 10 mg/kg, ip pretreated for 30 mins followed by formalin induction measured up to 5 mins (reference value: 60.23 +/- 5.12 s); type: functional
Mus musculus [3] = assay: Analgesic activity in formalin-induced nociception Albino Swiss CD-1 mouse model assessed as time spent on licking formalin injected hind paw during neurogenic phase at 20 mg/kg, ip pretreated for 30 mins followed by formalin induction measured up to 5 mins (reference value: 60.23 +/- 5.12 s); type: functional
Mus musculus [4] = assay: Analgesic activity in ip dosed formalin-induced nociception Albino Swiss CD-1 mouse model assessed as reduction in time spent on licking formalin injected hind paw during neurogenic phase pretreated for 30 mins followed by formalin induction measured up to 5 mins; type: functional; details: Swiss CD-1, ip
Mus musculus [5] = assay: (§1) Analgesic activity in formalin-induced nociception Albino Swiss CD-1 mouse model assessed as time spent on licking formalin injected hind paw during inflammatory phase at 5 mg/kg, ip pretreated for 30 mins followed by formalin induction measured after 15 to 30 mins (reference value: 138.5 +/- 8.55 s); type: functional
Mus musculus [6] = assay: as §1, with “at 10” for “at 5”; type: functional
Mus musculus [7] = assay: as §1, with “at 20” for “at 5”; type: functional
Mus musculus [8] = assay: Analgesic activity in ip dosed formalin-induced nociception Albino Swiss CD-1 mouse model assessed as reduction in time spent on licking formalin injected hind paw during inflammatory phase pretreated for 30 mins followed by formalin induction measured after 15 to 30 mins; type: functional; details: Swiss CD-1, ip
Mus musculus [9] = assay: Potency index, ratio of piroxicam ED50 to test compound ED50 for analgesic activity in ip dosed formalin-induced nociception Albino Swiss CD-1 mouse model assessed as reduction in time spent on licking formalin injected hind paw during inflammatory phase; type: functional
Mus musculus [10] = assay: Sedative activity in ip dosed Albino Swiss CD-1 mouse assessed as effect on locomotor activity by measuring reduction in number of light beam crossings treated for 30 mins measured for next 30 mins; type: organism-based; details: in vivo, 0.5 h
[11] = Neurotoxicity in Albino Swiss CD-1 mouse assessed as motor impairment at 20 mg/kg, ip measured for 1 min at 6 to 24 rpm by rotarod test; type: toxicity, organism-based; details: in vivo
[12] = Acute toxicity in Albino Swiss CD-1 mouse assessed as mortality at 2000 mg/kg, ip measured after 72 hrs relative to control; type: organism-based; details: in vivo
[13] = Acute toxicity in ip dosed Albino Swiss CD-1 mouse measured for 24 hrs; type: organism-based; details: in vivo
[14] = Acute toxicity in Albino Swiss CD-1 mouse assessed as mortality at 500 mg/kg, ip measured after 72 hrs relative to control; type: organism-based; details: in vivo
[15] = Acute toxicity in Albino Swiss CD-1 mouse assessed as mortality at 1000 mg/kg, ip measured after 72 hrs relative to control; type: organism-based; details: in vivo
[16] = Ulcerogenic activity in Wistar (Krf:(WI) WU) rat assessed as change in gastric mucosa at 25 mg/kg measured after 24 hrs by stereo microscopic analysis; type: toxicity, organism-based; details: in vivo
Mus musculus [17] = assay: Analgesic activity in formalin-induced nociception Albino Swiss CD-1 mouse model assessed as time spent on licking formalin injected hind paw during neurogenic phase at 30 mg/kg, ip pretreated for 30 mins followed by formalin induction measured up to 5 mins (reference value: 60.23 +/- 5.12 s); type: functional
Mus musculus [18] = assay: as §1, with “at 30” for “at 5”; type: functional

## O=C(C1=C(O)c2ccccc2S(=O)(=O)N1CCCN1CCN(c2ccccc2)CC1)c1ccccc1
Mus musculus [1]
  Time: 40 s
Mus musculus [2]
  Time: 28.25 s
Mus musculus [3]
  Time: 26.29 s
Mus musculus [4]
  ED50: 11.6 mg/kg
Mus musculus [5]
  Time: 71.6 s
Mus musculus [6]
  Time: 63 s
Mus musculus [7]
  Time: 44.14 s
Mus musculus [8]
  ED50: 6.18 mg/kg
Mus musculus [9]
  Ratio ED50: 2 - 5
Mus musculus [10]
  ED50: 34.12 mg/kg
[11]
  Activity: Non-Toxic
[12]
  mortality at 72 h: 0%
[13]
  LD50 at 24 h: > 2000 mg/kg

## COc1ccccc1N1CCN(C(=O)CN2C(C(=O)c3ccccc3)=C(O)c3ccccc3S2(=O)=O)CC1
Mus musculus [1]
  Time: 50.71 s
Mus musculus [2]
  Time: 45.63 s
Mus musculus [3]
  Time: 38.29 s
Mus musculus [5]
  Time: 77.29 s
Mus musculus [6]
  Time: 63.13 s
Mus musculus [7]
  Time: 55.71 s
Mus musculus [8]
  ED50: 7.93 mg/kg
Mus musculus [9]
  Ratio ED50: 2 - 5
Mus musculus [10]
  ED50: 32.1 mg/kg
[11]
  Activity: Non-Toxic
[12]
  mortality at 72 h: 0%
[13]
  LD50 at 24 h: > 2000 mg/kg

## COc1ccccc1N1CCN(CCCN2C(C(=O)c3ccccc3)=C(O)c3ccccc3S2(=O)=O)CC1
Mus musculus [1]
  Time: 55.83 s
Mus musculus [2]
  Time: 55.71 s
Mus musculus [3]
  Time: 51.4 s
Mus musculus [5]
  Time: 92.17 s
Mus musculus [6]
  Time: 68.17 s
Mus musculus [7]
  Time: 35.86 s
Mus musculus [8]
  ED50: 9.03 mg/kg
Mus musculus [9]
  Ratio ED50: 2 - 5
Mus musculus [10]
  ED50: 33.18 mg/kg
[11]
  Activity: Non-Toxic
[12]
  mortality at 72 h: 0%
[13]
  LD50 at 24 h: > 2000 mg/kg

## O=C(C1=C(O)c2ccccc2S(=O)(=O)N1CC(=O)N1CCN(c2ccccc2)CC1)c1ccc(F)cc1
Mus musculus [1]
  Time: 44.8 s
Mus musculus [2]
  Time: 32 s
Mus musculus [3]
  Time: 24.25 s
Mus musculus [4]
  ED50: 12.8 mg/kg
Mus musculus [5]
  Time: 75.78 s
Mus musculus [6]
  Time: 55.29 s
Mus musculus [7]
  Time: 30.67 s
Mus musculus [8]
  ED50: 6.24 mg/kg
Mus musculus [9]
  Ratio ED50: 2 - 5
Mus musculus [10]
  ED50: 26.15 mg/kg
[11]
  Activity: Non-Toxic
[14]
  mortality at 72 h: 0%
[15]
  mortality at 72 h: 66.7%
[12]
  mortality at 72 h: 100%
[13]
  LD50 at 24 h: 957 mg/kg
[16]
  Activity: Non-Toxic

## CN1C(C(=O)Nc2ccccn2)=C(O)c2ccccc2S1(=O)=O [PIROXICAM]
Mus musculus [1]
  Time: 61.31 s
Mus musculus [2]
  Time: 58.71 s
Mus musculus [3]
  Time: 59.16 s
Mus musculus [17]
  Time: 49.75 s
Mus musculus [5]
  Time: 116.1 s
Mus musculus [6]
  Time: 108.25 s
Mus musculus [7]
  Time: 67.43 s
Mus musculus [18]
  Time: 37.57 s
Mus musculus [8]
  ED50: 18.9 mg/kg
[13]
  LD50 at 24 h: 360 mg/kg
[16]
  Activity: Toxic

— ChEMBL document CHEMBL4316618, “Synthesis and pharmacological evaluation of novel arylpiperazine oxicams derivatives as potent analgesics without ulcerogenicity” (Bioorg Med Chem, 2019)
